Measured values published in patent EP0855398B1, “SESQUITERPENE DERIVATIVES HAVING ANTIVIRAL ACTIVITY” (SHIONOGI & CO., LTD., priority 1995, dated 1997).
Converted amounts (≈) assume the structure as drawn.

Experiments:
influenza A and B = conditions: administered orally or intraperitoneally; cited from earlier work
MDBK cells = conditions: Cell: MDBK, no virus; concentration at which 50% of the cells are killed; 4320 min
[1] = tested on: Influenza virus A/WSN/33 (H1N1); experiment: microbe, parasite or virus in culture; assay type: cell-based; conditions: viral strain: Influenza virus A/WSN/33 (H1N1); Cell: MDBK; […]; 3 days
A/Osaka/5/70 (H3N2) = experiment: Anti-viral activities against subtypes of influenza A and B (plaque number); assay type: cell-based; conditions: Influenza A virus, 72 h; (3): A/Osaka/5/70 (H3N2); Cell: MDCK; number of plaques decreases by 50%; 3 days; read-out: IC50
A/Kumamoto/5/67 (H2N2) = experiment: microbe, parasite or virus in culture; assay type: cell-based; conditions: Influenza A virus, H2N2, MDCK, 72 h
B/91N759 = experiment: Anti-viral activities against subtypes of influenza A and B (plaque number); assay type: cell-based; conditions: Influenza B virus, 72 h; (5): B/91N759; Cell: MDCK; number of plaques decreases by 50%; 3 days; read-out: IC50
[2] = Cytotoxicity for MDCK cells; assay type: cell-based; conditions: dog, Cell: MDCK, no virus
Experimental: As in the measurement of anti-viral activity, samples were added to the cells, and incubated with 50 µl of culture medium instead of the viral dilution. The results are expressed as CC50 which is defined as the concentration of the compound at which 50% of the cells are killed due to the toxicity of the compound.
MDCK cells (derived from dog kidney) were cultured on 12-well plates using E-MEM supplemented by 10% fetal bovine serum. To each well was added 250 µl each of a viral dilution prepared by 10-fold serial dilution with E-MEM, followed by incubation for one hour under 5% CO2 at 37 °C. After removal of the viral solution, one ml of E-MEM containing 0.8% agarose, 0.5% bovine serum albumin and 2 µg/ml trypsin, and an appropriately diluted test compound was added. The plate was inverted, and incubated for 3 days under 5% CO2 at 37 °C. The number of plaques formed was counted, and the IC50 value, which is the concentration of the compound at which the number of plaques decreases by 50% compared to that of control which lacks the test compound, was determined. As in the above section 2), CC50 values for MDCK cells were determined.

A/91/N796 (H3N2) = experiment: Anti-viral activities against subtypes of influenza A and B (plaque number); assay type: cell-based; conditions: Influenza A virus, 72 h; (4): A/91/N796 (H3N2); Cell: MDCK; number of plaques decreases by 50%; 3 days; read-out: IC50
A/WSN/33 (H1N1) = experiment: as above; assay type: cell-based; conditions: Influenza A virus, 72 h; (1): A/WSN/33 (H1N1); Cell: MDCK; number of plaques decreases by 50%; 3 days; read-out: IC50

Row | Structure (SMILES) | activity against influenza A and B (influenza A and B) | CC50 (MDBK cells) | IC50 [1] | IC50 (A/Osaka/5/70 (H3N2)) | IC50 (A/Kumamoto/5/67 (H2N2)) | IC50 (B/91N759) | CC50 [2] | IC50 (A/91/N796 (H3N2)) | IC50 (A/WSN/33 (H1N1))
1 | CC(=O)N[C@H]1[C@H]([C@H](O)[C@H](O)CO)OC(C(=O)O)=C[C@@H]1NC(=N)N [4-guanidino-Neu5Ac2en] | has not a satisfactory activity | – | – | – | – | – | – | – | –
2 | CCOC(=O)C=CC(=O)Nc1ccc(S(=O)(=O)O[C@H]2C[C@@]34Oc5c(c(O)cc6c5CNC6=O)C[C@]3(C)[C@@H](C)CC[C@H]4C(C)(C)[C@H]2O)cc1 [Compound (50f), (6aR, 7S, 9aS, 11R, 12S, 13aS)-12-[4-(3-ethoxycarbonyl-1-oxo-2-propenyl)amino] phenylsulfonyloxy-2,3,6,6a, 7,8,9,9a, 10, 11, 12, 13-dodecahydro-5, 11-dihydroxy-6a, 7, 10, 10-tetramethyl-3-oxo-1H-benzo[8,8a][1]benzopyrano[2,3-e]isoindole] | – | 5 µg/mL (≈ 7.32 µM) | 0.01 µg/mL (≈ 0.0146 µM) | – | – | – | – | – | –
3 | CC(=O)O[C@@H]1C(=O)C[C@@]23Oc4c(c(O)cc5c4CNC5=O)C[C@]2(C)[C@@H](C)CC[C@H]3C1(C)C [Compound (53a), (6aR, 7S, 9aS, 11S, 13aS)-11-acetoxy-2,3,6,6a, 7,8,9,9a, 10 11, 12, 13-dodecahydro-5-hydroxy-6a, 7, 10, 10-tetramethyl-3,12-dioxo-1H-benzo[8,8a][1]benzopyrano[2,3-e]isoindole] | – | >10 µg/mL | 0.04 to 0.08 µg/mL | – | – | – | – | – | –
4 | C[C@H]1CC[C@H]2C(C)(C)C(=O)CC[C@]23Oc2c(c(O)cc4c2C(=O)NC4=O)C[C@]13C [SQ-02-S5-OX1(11)] | – | – | – | 0.1 to 1 µg/mL (≈ 0.252 to 2.52 µM) | 0.01 to 0.1 µg/mL (≈ 0.0252 to 0.252 µM) | 0.1 µg/mL (≈ 0.252 µM) | 25 to 30 µg/mL (≈ 62.9 to 75.5 µM) | 1 µg/mL (≈ 2.52 µM) | 0.001 to 0.01 µg/mL (≈ 0.00252 to 0.0252 µM)
5 | C[C@H]1CC[C@H]2C(C)(C)C(=O)CC[C@]23Oc2c(c(O)cc4c2CNC4=O)C[C@]13C [SQ-02-S5-OX2(12)] | – | – | – | 1 to 10 µg/mL (≈ 2.61 to 26.1 µM) | 0.01 to 0.1 µg/mL (≈ 0.0261 to 0.261 µM) | 0.1 to 1 µg/mL (≈ 0.261 to 2.61 µM) | 25 to 50 µg/mL (≈ 65.2 to 130 µM) | 1 µg/mL (≈ 2.61 µM) | 0.001 to 0.01 µg/mL (≈ 0.00261 to 0.0261 µM)
